According to patent publication US20230203043A1, “NOVEL IMIDAZOPYRAZINE DERIVATIVES” (Hoffmann-La Roche Inc., priority 2020, published 2023):
Structures can show the parent of a compound that is named as a salt. Where two headings read alike, the source gives them in different places.

Test system: Acinetobacter baumannii ATCC17961
Test: Antimicrobial susceptibility testing: 90% growth inhibitory concentration (IC90) determination in Iso-Sensitest broth, OD600 growth
Type: cell-based
Method in brief: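 Compounds were twofold serially diluted in DMSO across 10 points (e.g. 50 to 0.097 μM final) and inoculated at ~5×10^(5) CFU/ml. Plates incubated at 35±2° C, with OD600 read every 20 minutes over 16 h. IC90 was derived from growth inhibition during logarithmic growth.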

[1] = Acinetobacter baumannii, ATCC17961, 16 h, strain ATCC 17961, OD600 growth over 16 h, read-out: A. baumannii ATCC 17961 IC90
[2] = Acinetobacter baumannii, ATCC17961, 16 h, read-out: A. baumannii ATCC 17961 IC90 (uM), strain ATCC 17961, OD600 growth over 16 h
[3] = strain ATCC 17961, OD600 growth over 16 h, read-out: A. baumannii ATCC 17961 IC90

| IC90 [1] [µM] | Compound | other results |
| --- | --- | --- |
| 0.14 | O=C(c1ccc(Nc2nccn3c(-c4c[nH]nc4C(F)(F)F)cnc23)cc1Cl)N1CCN(C(=O)[C@H]2[C@@H]3CNC[C@@H]32)CC1 [Example 516, (4-((1R,5S,6r)-3-azabicyclo[3.1.0]hexane-6-earbonyl)piperazin-1-yl) (2-chloro-4-((3-(3-(trifluoromethyl)-1H-pyrazol-4-yl)imidazo[1,2-a]pyrazin-8-yl)amino)phenyl)methanone formate] | – |
| 0.608 | CCc1cc(Nc2nccn3c(-c4c[nH]nc4C(F)(F)F)cnc23)ccc1C(=O)NCCCNC(=O)[C@@H](C)NC(=O)C(F)(F)F [Example 748, (R)-2-ethyl-N-(3-(2-(2,2,2-trifluoroacetamido)propanamido)propyl)-4-((3-(3-(trifluoromethyl)-1H-pyrazol-4-yl)imidazo[1,2-a]pyrazin-8-yl)amino) benzamide] | – |
| 0.525 | O=C(N[C@@H]1CCN(C(=O)[C@@H]2C[C@@H](O)CN2)C1)c1ccc(Nc2nccn3c(-c4c[nH]nc4C(F)(F)F)cnc23)cc1Cl [Example 308, 2-chloro-N-[(3R)-1-[(2S,4R)-4-hydroxypyrrolidine-2-carbonyl]pyrrolidine-3-yl]-4-[[3-[3-(trifluoromethyl)-1H-pyrazol-4-yl]imidazo[1,2-a]pyrazin-8-yl]amino]benzamide] | – |
| – | C[C@H](NC(=O)c1ccc(Nc2nccn3c(-c4c[nH]nc4C(F)(F)F)cnc23)cc1Cl)C(=O)N1CCC(N)CC1 [Example 126, N-[(2S)-1-(4-aminopiperidin-1-yl)-1-oxopropan-2-yl]-2-chloro-4-[[3-[3-(trifluoromethyl)-1H-pyrazol-4-yl]imidazo[1,2-a]pyrazin-8-yl]amino]benzamide formate] | IC90 [2]: 4.15 µM |
| – | CCc1cc(Nc2nccn3c(-c4cn(CC#N)nc4C(F)(F)F)cnc23)ccc1C(=O)NCC(=O)N[C@H]1CCNC1 [Example 758, 4-[[3-[1-(cyanomethyl)-3-(trifluoromethyl)pyrazol-4-yl]imidazo[1,2-a]pyrazin-8-yl]amino]-2-ethyl-N-[2-oxo-2-[[(3S)-pyrrolidin-3-yl]amino]ethyl]benzamide formate] | IC90 [2]: 0.693 µM |
| – | N#CCn1cc(-c2cnc3c(Nc4ccc(C(=O)N5CCN(C(=O)C6CC(N)C6)CC5)c(Cl)c4)nccn23)c(C(F)(F)F)n1 (stereo not drawn) [Example 189, 2-[4-[8-[4-[4-(3-aminocyclobutanecarbonyl)piperazine-1-carbonyl]-3-chloroanilino]imidazo[1,2-a]pyrazin-3-yl]-3-(trifluoromethyl)pyrazol-1-yl]acetonitrile formate] | IC90 [2]: 0.204 µM |
| – | NC1CCC(NC(=O)N2CCN(C(=O)c3ccc(Nc4nccn5c(-c6c[nH]nc6C(F)(F)F)cnc45)cc3Cl)CC2)CC1 (stereo not drawn) [Example 287, N-(4-aminocyclohexyl)-4-[2-chloro-4-[[3-[3-(trifluoromethyl)-1H-pyrazol-4-yl]imidazo[1,2-a]pyrazin-8-yl]amino]benzoyl] piperazine-1-carboxamide formate] | IC90 [3]: 0.23 µM |
| 0.599 | C#CCNCCCNC(=O)c1c(C)cc(Nc2nccn3c(-c4cn(CC#C)nc4C(F)(F)F)cnc23)cc1F [Example 72, 2-fluoro-6-methyl-N-[3-(prop-2-ynylamino)propyl]-4-[[3-[1-prop-2-ynyl-3-(trifluoromethyl)pyrazol-4-yl]imidazo[1,2-a]pyrazin-8-yl]amino]benzamide] | – |
| – | N#CCn1cc(-c2cnc3c(Nc4ccc(C(=O)N5CCN(C(=O)CC6CCNCC6)CC5)c(Cl)c4)nccn23)c(C(F)(F)F)n1 [Example 572, 2-(4-(8-((3-chloro-4-(4-(2-(piperidin-4-yl)acetyl)piperazine-1-carbonyl)phenyl)amino)imidazo[1,2-a]pyrazin-3-yl)-3-(trifluoromethyl)-1H-pyrazol-1-yl)acetonitrile formate] | IC90 [2]: 0.291 µM |
| 0.627 | CCc1cc(Nc2nccn3c(-c4cn(CC#N)nc4C(F)(F)F)cnc23)ccc1C(=O)NCCOC[C@@H](C)N [Example 156, N-[2-[(2R)-2-aminopropoxy]ethyl]-4-[[3-[1-(cyanomethyl)-3-(trifluoromethyl)pyrazol-4-yl]imidazo[1,2-a]pyrazin-8-yl]amino]-2-ethylbenzamide] | – |
| – | Cc1cc(Nc2nccn3c(-c4c[nH]nc4C(F)(F)F)cnc23)ccc1C(=O)N1CCN(C(=O)N[C@H]2CNC[C@@H]2O)CC1 [Example 458, formic acid, N-[(3S,4S)-4-hydroxyppyrrolidin-3-yl]-4-[2-methyl-4-[[3-[3-(trifluoromethyl)-1H-pyrazol-4-yl]imidazo[1,2-a]pyrazin-8-yl]amino]benzoyl]piperazine-1-carboxamide] | IC90 [3]: 0.551 µM |
| – | C#CCn1cc(-c2cnc3c(Nc4ccc(C(=O)N[C@H](C)CNC(=O)OC(C)(C)C)c(CC)c4)nccn23)c(C(F)(F)F)n1 [Example 128, tert-butyl N-[(2R)-2-[[2-ethyl-4-[[3-[1-prop-2-ynyl-3-(trifluoromethyl)pyrazol-4-yl]imidazo[1,2-a]pyrazin-8-yl]amino]benzoyl]amino]propyl] carbamate] | IC90 [3]: 0.659 µM |
| 0.737 | Cc1cc(Nc2nccn3c(-c4c[nH]nc4C(F)(F)F)cnc23)cc(F)c1C(=O)NCCOCCN [Example 80, N-[2-(2-aminoethoxy)ethyl]-2-fluoro-6-methyl-4-[[3-[3-(trifluoromethyl)-1H-pyrazol-4-yl]imidazo[1,2-a]pyrazin-8-yl]amino]benzamide] | – |
| – | COc1ccc(Cn2cc(-c3cnc4c(Nc5ccc(C(=O)N6CCNCC6)c(Cl)c5)nccn34)c(C(F)(F)F)n2)nn1 [Example 159, [2-chloro-4-[[3-[1-[(6-methoxypyridazin-3-yl)methyl]-3-(trifluoromethyl)pyrazol-4-yl]imidazo[1,2-a]pyrazin-8-yl]amino]phenyl]-piperazin-1-ylmethanone formate] | IC90 [2]: 0.408 µM |
| 0.38 | CCc1cc(Nc2nccn3c(-c4cn(CC#N)nc4C(F)(F)F)cnc23)ccc1C(=O)NCC(=O)NCC1CNC1 [Example 521, N-[2-(azetidin-3-ylmethylamino)-2-oxo-ethyl]-4-[[3-[1-(cyanomethyl)-3-(trifluoromethyl)pyrazol-4-yl]imidazo[1,2-a]pyrazin-8-yl]amino]-2-ethyl-benzamide formate] | – |
| 0.195 | CCc1cc(Nc2nccn3c(-c4cn(CC#N)nc4C(F)(F)F)cnc23)ccc1C(=O)NCCNC(=O)[C@H]1CC[C@H](N)C1 [Example 491, N-(2-((1S,3S)-3-aminocyclopentane-1-carboxamido)ethyl)-4-((3-(1-(cyanomethyl)-3-(trifluoromethyl)-1H-pyrazol-4-yl)imidazo[1,2-a]pyrazin-8-yl)amino)-2-ethylbenzamide formate] | – |
| 0.782 | Cc1cc(Nc2nccn3c(-c4c[nH]nc4C(F)(F)F)cnc23)ccc1C(=O)N1CCN(C(=O)[C@@H](C)N)CC1 [Example 334, (2R)-2-amino-1-[4-[2-methyl-4-[[3-[3-(trifluoromethyl)-1H-pyrazol-4-yl]imidazo[1,2-a]pyrazin-8-yl]amino]benzoyl]piperazin-1-yl]propan-1-one] | – |
| 0.9 | CCc1cc(Nc2nccn3c(-c4c[nH]nc4C(F)(F)F)cnc23)ccc1C(=O)NCCNC(=O)N1CC[C@H](N)C1 [Example 576, (S)-3-amino-N-(2-(2-ethyl-4-((3-(3-(trifluoromethyl)-1H-pyrazol-4-yl)imidazo[1,2-a]pyrazin-8-yl)amino)benzamido)ethyl) pyrrolidine-1-carboxamide formate] | – |
| 0.969 | O=C(NC1CCN(C(=O)c2ccc(Nc3nccn4c(-c5c[nH]nc5C(F)(F)F)cnc34)cc2Cl)CC1)C1CCNCC1 [Example 157, N-[1-[2-chloro-4-[[3-[3-(trifluoromethyl)-1H-pyrazol-4-yl]imidazo[1,2-a]pyrazin-8-yl]amino]benzoyl]piperidin-4-yl]piperidine-4-carboxamide] | – |
| 0.216 | O=C(c1ccc(Nc2nccn3c(-c4c[nH]nc4C(F)(F)F)cnc23)cc1Cl)N1CCN(C(=O)[C@H]2CCCN2)CC1 [Example 198, [2-chloro-4-[[3-[3-(trifluoromethyl)-1H-pyrazol-4-yl]imidazo[1,2-a]pyrazin-8-yl]amino]phenyl]-[4-[(2R)-pyrrolidine-2-carbonyl]piperazin-1-yl]methanone] | – |
| 0.411 | NC1CCN(C(=O)c2ccc(Nc3nccn4c(-c5c[nH]nc5C(F)(F)F)cnc34)cc2Cl)CC1 [Example 318, (4-aminopiperidin-1-yl)-[2-chloro-4-[[3-[3-(trifluoromethyl)-1H-pyrazol-4-yl]imidazo[1,2-a]pyrazin-8-yl]amino]phenyl]methanone] | – |
| 0.131 | Cc1cc(Nc2nccn3c(-c4cn(CC5CC5)nc4C(F)(F)F)cnc23)ccc1S(C)(=O)=NCCCN (stereo not drawn) [Example 596, N-[4-[N-(3-aminopropyl)-S-methyl-sulfonimidoyl]-3-methyl-phenyl]-3-[1-(cyclopropylmethyl)-3-(trifluoromethyl)pyrazol-4-yl]imidazo[1,2-α]pyrazin-8-amine formate] | – |
| – | CCc1cc(Nc2nccn3c(-c4c[nH]nc4C(F)(F)F)cnc23)ccc1C(=O)NCCCNC(=O)[C@@H]1C[C@@H](O)CN1 [Example 434, (2S,4R)-N-[3-[[2-ethyl-4-[[3-[3-(trifluoromethyl)-1H-pyrazol-4-yl]imidazo[1,2-a]pyrazin-8-yl]amino]benzoyl]amino]propyl]-4-hydroxypyrrolidine-2-carboxamide formate] | IC90 [2]: 0.463 µM |
| 0.174 | N#CCn1cc(-c2cnc3c(Nc4ccc(C(=O)N5CCN(C(=O)[C@@H]6CCCN6)CC5)c(Cl)c4)nccn23)c(C(F)(F)F)n1 [Example 210, 2-[4-[8-[3-chloro-4-[4-[(2S)-pyrrolidine-2-carbonyl]piperazine-1-carbonyl]anilino]imidazo[1,2-a]pyrazin-3-yl]-3-(trifluoromethyl)pyrazol-1-yl]acetonitrile] | – |
